Experiments:
HEK-293T = experiment: Cytotoxicity against HEK293T cells at 40 uM by CCK8 assay relative to control; assay type: toxicity, cell-based; conditions: human
Staphylococcus aureus [1] = experiment: Antibacterial activity against methicillin-resistant Staphylococcus aureus CGMCC1.12409 in presence of Fe3+ (reference value: 0.5 ug/ml); assay type: functional
Staphylococcus aureus [2] = experiment: Bactericidal activity against methicillin-resistant Staphylococcus aureus CGMCC1.12409 by CLSI based method; assay type: functional
Staphylococcus aureus [3] = experiment: Antibacterial activity against methicillin-resistant Staphylococcus aureus ATCC 43300 at 36.5 degreeC (reference value: 0.5 ug/ml); assay type: functional

Compound: COc1ccc2[nH]c3c(CC[C@H](C)[C@H]4CC[C@H]5[C@@H]6[C@H](O)C[C@@H]7C[C@H](O)CC[C@]7(C)[C@H]6C[C@H](O)[C@]45C)[n+](Cc4ccc(Cl)cc4)ccc3c2c1.[Br-]
- Activity (HEK-293T): Non-toxic
- MIC (Staphylococcus aureus [1]): 1 µg/mL
- MBC (Staphylococcus aureus [2]): 1 µg/mL
- MIC (Staphylococcus aureus [3]): 0.5 µg/mL
